This assay concerns L1210 leukemia ip in BDF1 mice, survival T/C. Briefly: NCI In Vivo Anticancer Drug Screen. Data for tumor model L1210 Leukemia (intraperitoneal) in B6D2F1 (BDF1) mice. The following applies: endpoint: mean survival time, higher = longer survival. The procedure, abridged: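 Transplantable tumor model; survival measured in treated vs vehicle control mice. Value = treated/control.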

Setting [1] is: dose: 50.0 mg/kg/injection, schedule: Q04DX002 (ip), vehicle: saline with Tween-80.
[2] abbreviates: dose: 100.0 mg/kg/injection, schedule: Q04DX002 (ip), vehicle: saline with Tween-80.
Setting [3] is: dose: 100.0 mg/kg/injection, schedule: Q04DX003 (ip), vehicle: saline with Tween-80.
The mark [4] stands for this setting: dose: 200.0 mg/kg/injection, schedule: Q04DX003 (ip), vehicle: saline with Tween-80.
Where [5] appears, read: dose: 400.0 mg/kg/injection, schedule: Q04DX003 (ip), vehicle: saline with Tween-80.
Where [6] appears, read: dose: 100.0 mg/kg/injection, schedule: Q01DX001 (ip), vehicle: carboxymethylcellulose (CMC).
The mark [7] stands for this setting: dose: 200.0 mg/kg/injection, schedule: Q01DX001 (ip), vehicle: carboxymethylcellulose (CMC).
The mark [8] stands for this setting: dose: 400.0 mg/kg/injection, schedule: Q01DX001 (ip), vehicle: carboxymethylcellulose (CMC).
The mark [9] stands for this setting: dose: 100.0 mg/kg/injection, schedule: Q04DX002 (ip), vehicle: Klucel (hydroxypropylcellulose) (HPC).
[10] abbreviates: dose: 200.0 mg/kg/injection, schedule: Q04DX002 (ip), vehicle: Klucel (hydroxypropylcellulose) (HPC).
[11] abbreviates: dose: 400.0 mg/kg/injection, schedule: Q04DX002 (ip), vehicle: Klucel (hydroxypropylcellulose) (HPC).

Where “and” joins values, the source holds several entries; their conditions need not be identical. Equal entries are not always repeated. Inconclusive results and toxic doses are left out.

On to `COC(=O)C(NC(=O)CCl)C(=O)OC`, for which the T/C was 96 % of control (dose: 100.0 mg/kg/injection, schedule: Q04DX003 (ip), vehicle: other); 93 % of control (dose: 200.0 mg/kg/injection, schedule: Q04DX003 (ip), vehicle: other); 94 % of control (dose: 400.0 mg/kg/injection, schedule: Q04DX003 (ip), vehicle: other).
With `O=C(C#Cc1ccccc1)c1ccccc1`, the T/C reads like this: (dose: 5.0 mg/kg/injection, schedule: Q01DX009 (ip), vehicle: Klucel (hydroxypropylcellulose) (HPC)) 98 % of control; (dose: 5.0 mg/kg/injection, schedule: Q04DX003 (ip), vehicle: Klucel (hydroxypropylcellulose) (HPC)) 101 % of control; (dose: 10.0 mg/kg/injection, schedule: Q01DX009 (ip), vehicle: Klucel (hydroxypropylcellulose) (HPC)) 96 % of control; (dose: 10.0 mg/kg/injection, schedule: Q04DX003 (ip), vehicle: Klucel (hydroxypropylcellulose) (HPC)) 103 % of control; (dose: 20.0 mg/kg/injection, schedule: Q01DX001 (ip), vehicle: Klucel (hydroxypropylcellulose) (HPC)) 96 % of control; (dose: 20.0 mg/kg/injection, schedule: Q01DX009 (ip), vehicle: Klucel (hydroxypropylcellulose) (HPC)) 102 % of control. For the setting “dose: 20.0 mg/kg/injection, schedule: Q04DX003 (ip), vehicle: Klucel (hydroxypropylcellulose) (HPC)”, the T/C was 104 % of control.
In the case of `C1CCC2[N-]CC3CCCCC3[N-]CC3CCCCC3[N-]CC3CCCCC3[N-]CC2C1.[Ni+2].[O-][Cl+3]([O-])([O-])O` (centres undefined), the T/C (dose: 12.5 mg/kg/injection, schedule: Q04DX002 (ip), vehicle: saline with Tween-80) is 101 % of control; the T/C (dose: 25.0 mg/kg/injection, schedule: Q04DX002 (ip), vehicle: saline with Tween-80) was 108 % of control; the T/C under setting [1] is 111 % of control.
As to `CCCCCCCCCCCC(=O)Nc1ccc(NC(C)=O)cc1`, the T/C was 96 % of control and 104 % of control (dose: 100.0 mg/kg/injection, schedule: Q01DX009 (ip), vehicle: saline with Tween-80); 93 % of control and 94 % of control under setting [2]; 95 % of control under setting [3]; 93 % of control and 96 % of control (dose: 200.0 mg/kg/injection, schedule: Q01DX009 (ip), vehicle: saline with Tween-80); 111 % of control and 91 % of control (dose: 200.0 mg/kg/injection, schedule: Q04DX002 (ip), vehicle: saline with Tween-80); 108 % of control under setting [4]. Further, the T/C was 96 % of control (dose: 400.0 mg/kg/injection, schedule: Q01DX009 (ip), vehicle: saline with Tween-80); 96 % of control and 102 % of control (dose: 400.0 mg/kg/injection, schedule: Q04DX002 (ip), vehicle: saline with Tween-80); 95 % of control under setting [5].
With `O=C(Nc1ccsc1)c1ccccc1`, the T/C reads like this: under setting [6], 110 % of control; (dose: 177.6 mg/kg/injection, schedule: Q01DX001 (ip), vehicle: carboxymethylcellulose (CMC)) 98 % of control; under setting [7], 91 % of control; (dose: 266.8 mg/kg/injection, schedule: Q01DX001 (ip), vehicle: carboxymethylcellulose (CMC)) 100 % of control; under setting [8], 90 % of control; (dose: 600.0 mg/kg/injection, schedule: Q01DX001 (ip), vehicle: carboxymethylcellulose (CMC)) 102 % of control.
Turning to `Cc1nc2c(nc1C)C(=O)C1C3c4ccccc4C(c4ccccc43)C1C2=O` (centres undefined), the T/C is 93 % of control (dose: 200.0 mg/kg/injection, schedule: Q04DX003 (ip), vehicle: Klucel (hydroxypropylcellulose) (HPC)) and 93 % of control (dose: 400.0 mg/kg/injection, schedule: Q04DX003 (ip), vehicle: Klucel (hydroxypropylcellulose) (HPC)).
Regarding `CNC1=C(N2CC2)C(=O)C(NC)=C(N2CC2)C1=O`, the T/C runs as follows: (dose: 0.01 mg/kg/injection, schedule: Q01DX009 (ip), vehicle: Klucel (hydroxypropylcellulose) (HPC)) 97 % of control and 102 % of control; (dose: 0.02 mg/kg/injection, schedule: Q01DX009 (ip), vehicle: Klucel (hydroxypropylcellulose) (HPC)) 100 % of control and 101 % of control; (dose: 0.04 mg/kg/injection, schedule: Q01DX009 (ip), vehicle: Klucel (hydroxypropylcellulose) (HPC)) 109 % of control and 119 % of control; (dose: 0.05 mg/kg/injection, schedule: Q01DX009 (ip), vehicle: saline) 106 % of control; (dose: 0.09 mg/kg/injection, schedule: Q04DX003 (ip), vehicle: Klucel (hydroxypropylcellulose) (HPC)) 110 % of control; (dose: 0.1 mg/kg/injection, schedule: Q01DX009 (ip), vehicle: saline) 118 % of control. Further, the T/C is 103 % of control (dose: 0.1 mg/kg/injection, schedule: Q04DX003 (ip), vehicle: saline); 161 % of control (dose: 0.19 mg/kg/injection, schedule: Q01DX009 (ip), vehicle: Klucel (hydroxypropylcellulose) (HPC)); 173 % of control (dose: 0.2 mg/kg/injection, schedule: Q01DX009 (ip), vehicle: saline); 112 % of control (dose: 0.2 mg/kg/injection, schedule: Q04DX003 (ip), vehicle: saline); 108 % of control (dose: 0.37 mg/kg/injection, schedule: Q01DX001 (ip), vehicle: saline); 112 % of control and 88 % of control (dose: 0.39 mg/kg/injection, schedule: Q01DX009 (ip), vehicle: Klucel (hydroxypropylcellulose) (HPC)). The T/C (dose: 0.39 mg/kg/injection, schedule: Q04DX003 (ip), vehicle: Klucel (hydroxypropylcellulose) (HPC)) is 156 % of control; the T/C (dose: 0.78 mg/kg/injection, schedule: Q04DX003 (ip), vehicle: Klucel (hydroxypropylcellulose) (HPC)) was 112 % of control and 115 % of control; the T/C (dose: 0.8 mg/kg/injection, schedule: Q04DX003 (ip), vehicle: saline) was 157 % of control.
With `O=C1OCC/C1=C/OCCCCCO/C=C1/CCOC1=O`, the T/C under setting [9] is 106 % of control, the T/C under setting [10] was 97 % of control and the T/C under setting [11] was 90 % of control.
On to `CC(=O)c1ccc(Oc2ccc(C(C)=O)cc2)cc1`, for which the T/C reads like this: (dose: 50.0 mg/kg/injection, schedule: Q01DX001 (ip), vehicle: carboxymethylcellulose (CMC)) 103 % of control; under setting [6], 105 % of control; under setting [9], 106 % of control; under setting [7], 92 % of control; under setting [10], 102 % of control; under setting [8], 92 % of control. The T/C under setting [11] is 91 % of control.
As for `O=C(/C=C/c1ccc2c(c1)OCO2)/C=C/c1ccc2c(c1)OCO2`, the T/C is 89 % of control (dose: 25.0 mg/kg/injection, schedule: Q01DX009 (ip), vehicle: saline); 88 % of control (dose: 50.0 mg/kg/injection, schedule: Q01DX009 (ip), vehicle: saline); 91 % of control (dose: 100.0 mg/kg/injection, schedule: Q01DX009 (ip), vehicle: saline); 88 % of control (dose: 200.0 mg/kg/injection, schedule: Q01DX009 (ip), vehicle: saline).
As for `CCCCCCCCCCCCOP(=S)(S)OCCCCCCCCCCCC.[Cd]`, the T/C is 102 % of control (dose: 1.56 mg/kg/injection, schedule: Q01DX009 (ip), vehicle: saline with Tween-80); 97 % of control (dose: 3.13 mg/kg/injection, schedule: Q01DX009 (ip), vehicle: saline with Tween-80); 96 % of control (dose: 6.25 mg/kg/injection, schedule: Q01DX009 (ip), vehicle: saline with Tween-80); 94 % of control under setting [1]; 86 % of control and 91 % of control under setting [2].
As for `CCCCN=C(NCCCC)OCCCC`, the T/C was 104 % of control (dose: 11.1 mg/kg/injection, schedule: Q01DX Z (ip), vehicle: saline) and 100 % of control (dose: 16.6 mg/kg/injection, schedule: Q01DX Z (ip), vehicle: saline).
On to `O=C(O)c1cc2ccccc2[nH]1`, for which the T/C is, setting by setting: under setting [3], 95 % of control; under setting [4], 95 % of control; under setting [5], 90 % of control.

For the origin of these results see PubChem BioAssay AID248 (DTP/NCI, 2004).
